Experimental data from patent US8198317B2, “Methylenedioxy phenolic compounds and their use to treat disease” (The Ohio State University Research Foundation, priority 2008, dated 2012).

Legend:
human full length PPARα = molecular target: T1, human full length PPARα (Homo sapiens, UniProt Q07869); experiment: PPARα promoter-reporter luciferase assay in HepG2 cells; assay type: cell-based
T1 construct: HepG2 cells transfected by full length human PPARα linked to luciferase reporter; expressed in transfected cells; host or cells: HepG2
T1 sequence (Q07869 1-468): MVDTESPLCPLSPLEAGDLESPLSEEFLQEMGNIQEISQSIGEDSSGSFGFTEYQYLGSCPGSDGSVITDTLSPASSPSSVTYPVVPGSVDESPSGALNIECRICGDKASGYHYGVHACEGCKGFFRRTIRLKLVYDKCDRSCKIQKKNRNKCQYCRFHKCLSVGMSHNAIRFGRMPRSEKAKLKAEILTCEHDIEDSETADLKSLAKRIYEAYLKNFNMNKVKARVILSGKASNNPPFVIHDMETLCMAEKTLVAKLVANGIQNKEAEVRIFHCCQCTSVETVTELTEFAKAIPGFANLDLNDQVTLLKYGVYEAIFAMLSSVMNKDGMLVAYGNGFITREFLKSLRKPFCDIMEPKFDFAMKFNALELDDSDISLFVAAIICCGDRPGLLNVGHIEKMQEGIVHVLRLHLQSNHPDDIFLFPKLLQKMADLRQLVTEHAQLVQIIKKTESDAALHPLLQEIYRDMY
Source text: HepG2 cells were transfected with the full length PPARα promoter reporter construct and stimulated by INV-75 ([…]). Results in C are expressed as % increase compared to WY 14643.
(§1) We used a reporter gene assay in HepG2 cells to screen for agonists of the peroxisome proliferator-activated receptors. Peroxisome proliferator-activated receptors (PPARs) and other members of the nuclear hormone receptor family are important drug targets for the treatment of metabolic diseases. PPARs play crucial roles in lipid and glucose metabolism, respectively. Therefore, screening methods that help to rapidly identify activators of these receptors should be of considerable value. INV-75 activated a classic PPARα gene, Acetyl-CoA Oxidase (ACO) in a dose dependent and time dependent fashion (FIG. 6A). The time course experiment was performed in presence of INV-75 up to 15 hours. […] We next tested the specificity of INV-75 for PPARα by performing experiments in HepG2 cells transfected with yeast GAL4-PPARα-LBD plasmid+UAS-Luciferase; GAL4-PPARδ-LBD plasmid+UAS-Luciferase and […]. The PPARα, PPARδ and PPARγ binding assays were performed using multiple concentrations of INV-75 (1 μM, 10 μM, 100 μM and 1000 μM). The level of luciferase activity corresponded to the degree of PPAR activation. The results were compared with classic PPAR agonists such as WY-14643 (PPARα agonist), Bezafibrate (PPARδ agonist) and Rosiglitazone ([…]).

[1] = system: Watanabe Heritable Hyperlipidemic Rabbits (WHHL); experiment: Lucigenin chemiluminescence for NADPH derived superoxide in WHHL aortic lysates; assay type: in vivo, rabbit; details: vs control
Procedure: Oxidative stress has been implicated in atherosclerosis. Superoxide (O2^•−) derived from NADPH could potentially trigger a free radical chain reaction which could potentially catalyze atherosclerotic plaque formation. Rabbit aorta was homogenized in PBS, and the protein concentration was adjusted to 5 μg/μl. 20 ul/well of cell lysates were plated on a 96-well microplate in Kreps-Hepes Buffer (pH=7.4; initially gassed with 95% O2, and 5% CO2). The baseline O2^•− production was measured with 5 μM Lucigenin. NADPH induced O2^•− production was measured by adding NADPH (100 μM). Measurements were performed with Berthold Luminometer LB 960. Luminometer settings were 0.1 s measurement and 30s kinetics.

PCSK9 = PCSK9 expression in HepG2 cells; assay type: cell-based, human
Source text: Next we investigated the effect of INV-75 in regulating LDL receptor expression in the same cells using a similar protocol to assess dose and temporal dependence. FIGS. 5E and 5F depict the time course of LDL receptor expression and dose dependence in response to INV-75. […] INV-75 had no effects on SREBP-1 regulation (data not shown). Simultaneously multiple genes involved in cholesterol synthesis and regulation, apolipoprotein gene expression and expression of PCSK9 (Proprotein convertase subtilisin/kexin type 9) was tested. The latter gene is known to regulate LDL receptor expression by binding to the epidermal growth factor-like repeat A (EGF-A) domain of the low-density lipoprotein receptor (LDLR), inducing LDLR degradation. Inhibition of PSCK9 function is currently being explored as a means of lowering cholesterol levels.

PPARα = molecular target: T2, PPARα (Homo sapiens, UniProt Q07869); experiment: GAL4-PPARα-LBD luciferase assay in HepG2 cells; assay type: cell-based
T2 construct: HepG2 cells transfected with yeast GAL4-PPARα-LBD plasmid+UAS-Luciferase; expressed in transfected cells; host or cells: HepG2
Source text: as §1

[2] = system: Watanabe Heritable Hyperlipidemic Rabbits (WHHL); experiment: Western blot of VCAM-1 and ICAM-1 in WHHL rabbit aorta; assay type: in vivo
Procedure: Samples were homogenized and solubilized in radioimmunoprecipitation assay buffer (50 mM Tris-HCl, pH 7.4, 150 mM NaCl, 1 mM EDTA, 1 mM NaF, 1 mM Na3VO4) and 1 mM phenylmethylsulfonyl fluoride, with 0.25% sodiumdeoxycholate and 1.0% Nonidet P-40) and centrifuged at 10,000 g and 4° C. for 30 min. The supernatant was collected and subjected to Western blot analysis. In brief, 40 μg of protein was separated by SDS-polyacrylamide gel electrophoresis and subsequently transferred to nitrocellulose membrane. The membrane was then incubated with: monoclonal anti-β-actin (Sigma, St. Louis, Mo.), monoclonal anti-VCAM (R&D Systems, Minneapolis, Minn.), monoclonal anti-ICAM (R&D Systems, Minneapolis, Minn.), monoclonal anti-phospho-eNOS(pS 1177) (BD Biosciences, Billerica, Mass.), rabbit anti-eNOS (Santa Cruz Biotechnology, Santa Cruz, Calif.), rabbit anti-phospho-Akt (Thr308) (Cell Signaling Technology, Danvers, Mass.), goat anti-Akt (Santa Cruz Biotechnology, Santa Cruz, Calif.), and rabbit anti-p65 (Cell Signaling Technology, Danvers, Mass.). Finally, the membranes were incubated with a horseradish peroxidase-linked secondary antibody and visualized with an enhanced chemiluminescence kit (Amersham Biosciences Inc., Piscataway, N.J.). Band density was quantified by densitometric analysis using ImageJ.

luciferase activation (human full length PPARα; HepG2 transfected with PPARα promoter-reporter construct): increased
persistence of effects on PPARα activation (human full length PPARα; time course): up to 15 hours
time of onset of PPARα activation (human full length PPARα; time course): < 1 h
agonist properties on PPARα activation (PPARα): selective but partial agonist
PPARα ligand binding activity (PPARα; 1 μM to 1000 μM): increased
Compound: CC(=O)Oc1cc2c(cc1[N+](=O)[O-])OCO2 [INV-75, 3,4-methylenedioxy-6-nitrophenyl acetate]
basal and stimulated superoxide production in aortic tissue lysates [1]: lower
PCSK9 expression (PCSK9): no effects
protein expression of ICAM-1 [2]: markedly reduced
protein expression of VCAM-1 [2]: markedly reduced
